Where no end group is shown, it is not given here.
Columns and labels:
K^d = settings: natural influenza epitope; cited from earlier work

Sequence | match of the K^d-eluted self peptide sequence with the K^d-restricted consensus motif (H-2K^d) | K^d restriction / T cell epitope (K^d)
SYFPEITHI [SYFPEITHI (SEQ ID NO:2)] | matches the consensus motif | 
TYQRTRALV [TYQRTRALV (SEQ ID NO:1)] |  | natural K^d -restricted influenza epitope
